The term pest or weed control denotes how far the test organism was held down. Low values mean a weak effect, high ones a strong effect.

Molecules are shown by their SMILES.

For experiment [1], the system named is Botryotinia fuckeliana (Botrytis cinerea). Nature of the experiment: Example B2: Botryotinia fuckeliana (Botrytis cinerea)/Liquid Culture (Gray Mould). Type of experiment: cell-based. The note with it: liquid culture, growth inhibition photometrically 3 to 4 days after application, read-out: control of Botryotinia fuckeliana. Here is the method: Example B2: Botryotinia fuceliana (Botrytis cinerea)/Liquid Culture (Gray Mould)
Conidia of the fungus from cryogenic storage are directly mixed into nutrient broth (Vogels broth). After placing a (DMSO) solution of test compound into a microtiter plate (96-well format), the nutrient broth containing the fungal spores is added. The test plates are incubated at 24° C. and the inhibition of growth is determined photometrically 3 to 4 days after application.

Experiment [2] has as its system Mycosphaerella graminicola (Septoria tritici). The experiment can be described thus: Example B21: Mycosphaerella graminicola (Septoria tritici)/Liquid Culture (Septoria Blotch). Particulars: Zymoseptoria tritici, liquid culture, photometrically 4-5 days after application, read-out: control of Mycosphaerella graminicola. The experiment is classed as cell-based. Here is the method:
Example B21: Mycosphaerella graminicola (Septoria tritici)/Liquid Culture (Septoria Blotch)
Conidia of the fungus from cryogenic storage are directly mixed into nutrient broth (PDB potato dextrose broth). After placing a (DMSO) solution of test compound into a microtiter plate (96-well format), the nutrient broth containing the fungal spores is added. The test plates are incubated at 24° C. and the inhibition of growth is determined photometrically 4-5 days after application.

Experiment [3] relates to Phaeosphaeria nodorum (Septoria nodorum). The experiment can be described thus: Example B11: Phaeosphaeria nodorum (Septoria nodorum)/Wheat/Leaf Disc Preventative (Glume Blotch). The note with it: Parastagonospora nodorum, foliar, wheat leaf segments, inoculated 2 days after application. Type of experiment: in vivo. Here is the method:
Example B11: Phaeosphaeria nodorum (Septoria nodorum)/Wheat/Leaf Disc Preventative (Glume Blotch)
Wheat leaf segments cv. Kanzler are placed on agar in a multiwell plate (24-well format) and sprayed with the formulated test compound diluted in water. The leaf disks are inoculated with a spore suspension of the fungus 2 days after application. The inoculated test leaf disks are incubated at 20° C. and 75% rh under a light regime of 12 h light/12 h darkness in a climate cabinet and the activity of a compound is assessed as percent disease control compared to untreated when an appropriate level of disease damage appears in untreated check leaf disks (5-7 days after application).

The test system of the next experiment is Alternaria solani. The experiment can be described thus: Example B1: Alternaria solani/Tomato/Leaf Disc (Early Blight). Type of experiment: in vivo. The note with it: foliar, tomato leaf disks, inoculated 2 days after application, compared to untreated control. Here is the method:
Example B1: Alternaria solani/Tomato/Leaf Disc (Early Blight)
Tomato leaf disks cv. Baby are placed on agar in multiwell plates (24-well format) and sprayed with the formulated test compound diluted in water. The leaf disks are inoculated with a spore suspension of the fungus 2 days after application. The inoculated leaf disks are incubated at 23° C./21° C. (day/night) and 80% rh under a light regime of 12/12 h (light/dark) in a climate cabinet and the activity of a compound is assessed as percent disease control compared to untreated when an appropriate level of disease damage appears on untreated check leaf disks (5-7 days after application).

For experiment [4], the system named is Monographella nivalis (Microdochium nivale). The experiment can be described thus: Example B12: Monographella nivalis (Microdochium nivale)/Liquid Culture (Foot Rot Cereals). Type of experiment: cell-based. The note with it: liquid culture, photometrically 4 to 5 days after application, read-out: control of Monographella nivalis. Here is the method: Example B12: Monographella nivalis (Microdochium nivale)/Liquid Culture (Foot Rot Cereals)
(§1) Conidia of the fungus from cryogenic storage are directly mixed into nutrient broth (PDB potato dextrose broth). After placing a (DMSO) solution of test compound into a microtiter plate (96-well format), the nutrient broth containing the fungal spores is added. The test plates are incubated at 24° C. and the inhibition of growth is determined photometrically 4 to 5 days after application.

The subject of experiment [5] is Mycosphaerella arachidis (Cercospora arachidicola). Nature of the experiment: Example B13: Mycosphaerella arachidis (Cercospora arachidicola)/Liquid Culture (Early Leaf Spot). Particulars: liquid culture, photometrically 4 to 5 days after application, read-out: control of Mycosphaerella arachidis. Type of experiment: cell-based. Here is the method: Example B13: Mycosphaerella arachidis (Cercospora arachidicola)/Liquid Culture (Early Leaf Spot)
as §1

For experiment [6], the system named is Glomerella lagenarium (Colletotrichum lagenarium). The experiment can be described thus: Example B5: Glomerella lagenarium (Colletotrichum lagenarium)/Liquid Culture (Anthracnose). The experiment is classed as cell-based. Particulars: Colletotrichum orbiculare, liquid culture, photometrically 3 to 4 days after application, read-out: control of Glomerella lagenarium. Here is the method: Example B5: Glomerella lagenarium (Colletotrichum lagenarium)/Liquid Culture (Anthracnose)
Conidia of the fungus from cryogenic storage are directly mixed into nutrient broth (PDB potato dextrose broth). After placing a (DMSO) solution of test compound into a microtiter plate (96-well format), the nutrient broth containing the fungal spores is added. The test plates are incubated at 24° C. and the inhibition of growth is measured photometrically 3 to 4 days after application.

A short description of experiment [7]: Comparison of fungicidal activity of the separated stereoisomers (peaks 1 to 4). Particulars: SFC-separated stereoisomers of Example P3.
In the next experiment the test system is Pyrenophora teres. Nature of the experiment: Example B18: Pyrenophora teres/Barley/Leaf Disc Preventative (Net Blotch). Particulars: foliar, barley leaf segments, inoculated 2 days after application. The experiment is classed as in vivo. Here is the method:
Example B18: Pyrenophora teres/Barley/Leaf Disc Preventative (Net Blotch)
Barley leaf segments cv. Hasso are placed on agar in a multiwell plate (24-well format) and sprayed with the formulated test compound diluted in water. The leaf segments are inoculated with a spore suspension of the fungus 2 days after application. The inoculated leaf segments are incubated at 20° C. and 65% rh under a light regime of 12 h light/12 h darkness in a climate cabinet and the activity of a compound is assessed as disease control compared to untreated when an appropriate level of disease damage appears in untreated check leaf segments (5-7 days after application).

A further experiment deals with Fusarium culmorum. Type of experiment: in vivo. Particulars: 200 ppm; wheat spikelets, preventative, inoculated 1 day after application.
For experiment [8], the system named is Gibberella zeae (Fusarium graminearum). Type of experiment: in vivo. The note with it: 200 ppm; wheat spikelets, preventative, inoculated one day after application.

`Cc1c(C2CN(C(=O)c3nc(-c4ccc(F)cc4F)no3)Cc3ccccc32)cnn1C` (stereo not shown) [X.02, [3-(2,4-difluorophenyl)-1,2,4-oxadiazol-5-yl]-[4-(1,5-dimethylpyrazol-4-yl)-3,4-dihydro-1H-isoquinolin-2-yl]methanone]: the inhibition of growth at 20 ppm in [1], in [2], in experiment [4], in [5] and in experiment [6] was ≥ 80% each time. Besides, the pest or weed control at 200 ppm (in experiment [3]; with Alternaria solani) was ≥ 80% throughout.

As for `C[C@H]1c2ccccc2[C@@](C)(c2cnn(C)c2)CN1C(=O)c1cc(-c2ccc(F)cc2F)on1` (single isomer, unassigned) [X.22], in experiment [7], the “fungicidal activity compared with the other enantiomer” value is given as “more fungicidally active than the compound of peak 3”.

As for `Cc1c([C@H]2CN(C(=O)c3cc(-c4ncc(F)cc4F)on3)[C@@H](C)c3ccccc32)cnn1C` (racemic) [X.21, [5-(3,5-difluoro-2-pyridyl)isoxazol-3-yl]-[rac-(1S,4S)-4-(1,5-dimethylpyrazol-4-yl)-1-methyl-3,4-dihydro-1H-isoquinolin-2-yl]methanone], the inhibition of growth at 20 ppm in [1], in experiment [2], in experiment [4], in experiment [5] and in [6] was ≥ 80% throughout. The pest or weed control at 200 ppm (in the experiment on Pyrenophora teres; in experiment [3]; in the experiment on Alternaria solani) was ≥ 80% each time. Besides, in the experiment with Fusarium culmorum, the “control of Fusarium culmorum” value is reported as “at least 80%”. In addition, the “control of Gibberella zeae” value in [8] is “at least 80%”.

With `C[C@@H]1c2ccccc2[C@@](C)(c2cnn(C)c2)CN1C(=O)c1cc(-c2ccc(F)cc2F)on1` (single isomer, unassigned) [peak 1], the “fungicidal activity compared with the other enantiomer” value in experiment [7] is listed as “more fungicidally active than the compound of peak 2”.

With `Cn1ncc(C2CN(C(=O)c3cc(-c4ccc(F)cc4F)on3)Cc3ccccc32)c1F` (stereo not shown) [X.12, [5-(2,4-difluorophenyl)isoxazol-3-yl]-[4-(5-fluoro-1-methyl-pyrazol-4-yl)-3,4-dihydro-1H-isoquinolin-2-yl]methanone], the inhibition of growth at 20 ppm in [1], in [2], in experiment [4], in [5] and in experiment [6] was ≥ 80% in each case. In addition, the pest or weed control at 200 ppm (with Pyrenophora teres; in experiment [3]) was ≥ 80% in each case.

Regarding `Cn1cc([C@]2(C)CN(C(=O)c3nnc(-c4ccc(F)cc4F)s3)Cc3ccccc32)cn1` [X.06, [5-(2,4-difluorophenyl)-1,3,4-thiadiazol-2-yl]-[(4R)-4-methyl-4-(1-methylpyrazol-4-yl)-1,3-dihydroisoquinolin-2-yl]methanone], the inhibition of growth at 20 ppm in [1], in [2], in experiment [4], in [5] and in [6] was ≥ 80% each time. Besides, the pest or weed control at 200 ppm (with Pyrenophora teres; in experiment [3]) was ≥ 80% in each case.

Turning to `Cn1cc(C2c3ccccc3CN(C(=O)c3cc(-c4ccc(F)cc4F)on3)C2(C)C)cn1` (stereo not shown) [X.13, [5-(2,4-difluorophenyl)isoxazol-3-yl]-[3,3-dimethyl-4-(1-methylpyrazol-4-yl)-1,4-dihydroisoquinolin-2-yl]methanone], the inhibition of growth at 20 ppm in [1], in experiment [2], in experiment [4], in experiment [5] and in [6] was ≥ 80% in each case. The pest or weed control at 200 ppm (with Pyrenophora teres; in experiment [3]) was ≥ 80% in each case.

Values taken from patent US20260198498A1, “FUNGICIDAL COMPOSITIONS” (SYNGENTA CROP PROTECTION AG, priority 2022, published 2026).
